Laboratory results reported in ChEMBL document CHEMBL5154871, “Non-peptidyl non-covalent cathepsin C inhibitoEEr bearing a unique thiophene-substituted pyridine: Design, structure-activity relationship and anti-inflammatory activity in vivo” (Eur J Med Chem, 2022).

Legend:
[1] = biological target: T1, Dipeptidyl peptidase 1 (Homo sapiens, UniProt P53634); experiment: Inhibition of human recombinant Cathepsin C using H-Gly-Arg-AMC as substrate pretreated for 30 mins followed by substrate addition and incubated for 60 mins by microplate reader assay
[2] = biological target: T1, Dipeptidyl peptidase 1; experiment: Inhibition of Cathepsin C in human THP-1 cells using H-Gly-Phe-AFC as substrate pretreated for 1 hr followed by substrate addition and incubated for 60 mins by microplate reader assay; assay type: cell-based
[3] = biological target: T1, Dipeptidyl peptidase 1; experiment: Inhibition of Cathepsin C in human U-937 cells using H-Gly-Phe-AFC as substrate pretreated for 1 hr followed by substrate addition and incubated for 60 mins by microplate reader assay; assay type: cell-based
[4] = biological target: Cathepsin B (Homo sapiens, UniProt P07858); experiment: Inhibition of human recombinant Cathepsin B using Z-Leu-Arg-AMC as substrate pretreated for 60 mins followed by substrate addition and incubated for 30 mins by microplate reader assay

T1 sequence (P53634 25-134 limits assumed): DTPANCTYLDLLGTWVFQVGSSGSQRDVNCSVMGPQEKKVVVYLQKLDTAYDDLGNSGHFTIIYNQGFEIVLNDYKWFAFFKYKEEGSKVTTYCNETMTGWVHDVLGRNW
T1 sequence (P53634 231-394 limits assumed): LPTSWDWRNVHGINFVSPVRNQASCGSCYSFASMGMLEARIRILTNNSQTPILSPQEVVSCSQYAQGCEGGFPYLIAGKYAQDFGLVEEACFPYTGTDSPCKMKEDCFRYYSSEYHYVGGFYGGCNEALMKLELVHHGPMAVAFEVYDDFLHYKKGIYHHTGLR
T1 sequence (P53634 395-463 limits assumed): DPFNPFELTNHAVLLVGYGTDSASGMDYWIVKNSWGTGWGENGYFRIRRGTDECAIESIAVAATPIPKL

IC50 [1] [nM] | IC50 [2] [nM] | IC50 [3] [nM] | IC50 [4] [nM] | Compound
> 5000 | > 5000 | > 5000 | – | FC(F)(F)c1cccc(Nc2nc(Nc3ccc(-c4ccsc4)cn3)ncc2-c2cccc(Cl)c2)c1
> 5000 | > 5000 | > 5000 | – | CS(=O)(=O)c1ccc(-c2cnc(Nc3ccc(-c4ccsc4)cn3)nc2Nc2cccc(C(F)(F)F)c2)cc1
69.4 | 89.8 | 92.2 | – | FC(F)(F)c1ccc(CNc2nc(Nc3ccc(-c4ccsc4)cn3)ncc2Cl)cc1
91.5 | 120 | 169 | – | Clc1cnc(Nc2ccc(-c3ccsc3)cn2)nc1NC1CCNCC1
105 | 184 | 150 | – | FC(F)(F)c1ccc(Nc2nc(Nc3ccc(-c4ccsc4)cn3)ncc2Cl)cc1
> 5000 | > 5000 | > 5000 | – | CN1CC=C(c2cnc(Nc3ccc(-c4ccsc4)cn3)nc2Nc2cccc(C(F)(F)F)c2)CC1
132 | 156 | 127 | – | Nc1cccc(Nc2nc(Nc3ccc(-c4ccsc4)cn3)ncc2Cl)c1
252 | 180 | 246 | – | FC(F)(F)Oc1cccc(Nc2nc(Nc3ccc(-c4ccsc4)cn3)ncc2Cl)c1
152 | 197 | 276 | – | O=[N+]([O-])c1cc(-c2ccsc2)cnc1Nc1ncc(Cl)c(Nc2cccc(C(F)(F)F)c2)n1
> 5000 | > 5000 | > 5000 | – | CC(=O)Nc1cccc(-c2cnc(Nc3ccc(-c4ccsc4)cn3)nc2Nc2cccc(C(F)(F)F)c2)c1
> 5000 | > 5000 | > 5000 | – | FC(F)(F)c1cccc(Nc2nc(Nc3ccc(-c4ccsc4)cn3)ncc2-c2ccoc2)c1
156 | 308 | 228 | – | CC(=O)c1cccc(-c2cnc(Nc3ccc(-c4ccsc4)cn3)nc2Nc2cccc(C(F)(F)F)c2)c1
> 5000 | > 5000 | > 5000 | – | FC(F)(F)c1cccc(Nc2nc(Nc3ccc(-c4ccco4)cn3)ncc2Cl)c1
142 | 170 | 200 | – | Fc1ccc(Nc2nc(Nc3ccc(-c4ccsc4)cn3)ncc2Cl)cc1C(F)(F)F
> 5000 | > 5000 | > 5000 | – | CN1CCN(Cc2ccc(-c3cnc(Nc4ccc(-c5ccsc5)cn4)nc3Nc3cccc(C(F)(F)F)c3)cc2)CC1
> 5000 | > 5000 | > 5000 | – | FC(F)(F)c1cccc(Nc2nc(Nc3ccc(-c4ccsc4)cn3)ncc2-c2ccncc2)c1
> 5000 | > 5000 | > 5000 | – | CN1CCN(c2ccc(-c3cnc(Nc4ccc(-c5ccsc5)cn4)nc3Nc3cccc(C(F)(F)F)c3)cc2)CC1
> 5000 | > 5000 | > 5000 | – | NC(=O)c1cccc(-c2cnc(Nc3ccc(-c4ccsc4)cn3)nc2Nc2cccc(C(F)(F)F)c2)c1
92.4 | 110 | 154 | – | FC(F)(F)Oc1ccc(Nc2nc(Nc3ccc(-c4ccsc4)cn3)ncc2Cl)cc1
99.8 | 159 | 174 | – | Fc1ccc(Nc2nc(Nc3ccc(-c4ccsc4)cn3)ncc2Cl)cc1F

IC50 [1] [nM] | IC50 [2] [nM] | IC50 [3] [nM] | IC50 [4] [nM] | Compound
> 5000 | > 5000 | > 5000 | – | FC(F)(F)c1cccc(Nc2nc(Nc3ccc(-c4ccsc4)cn3)ncc2-c2ccccc2)c1
> 5000 | > 5000 | > 5000 | – | FC(F)(F)c1cccc(Nc2nc(Nc3ncc(-c4ccsc4)cn3)ncc2Cl)c1
98.6 | 203 | 180 | – | FC(F)(F)c1cccc(Nc2nc(Nc3ccc(-c4ccsc4)cn3)ncc2Br)c1
77.9 | 260 | 155 | – | FC(F)(F)c1cccc(Nc2nc(Nc3cc(-c4ccsc4)ccn3)ncc2Cl)c1
90.6 | 89.5 | 181 | – | FC(F)(F)c1cccc(Nc2nc(Nc3ccc(-c4ccsc4)nn3)ncc2Cl)c1
65.6 | 203 | 178 | > 5000 | FC(F)(F)c1cccc(Nc2nc(Nc3cccc(-c4ccsc4)c3)ncc2Cl)c1
248 | > 3000 | 416 | – | Cn1cc(-c2cnc(Nc3ccc(-c4ccsc4)cn3)nc2Nc2cccc(C(F)(F)F)c2)cn1
103 | 160 | 216 | – | FC(F)(F)c1cccc(Nc2nc(Nc3ccc(-c4ccsc4)nc3)ncc2Cl)c1
128 | 129 | 396 | – | FC(F)(F)c1cccc(Nc2nc(Nc3ccc(-c4cccs4)cn3)ncc2Cl)c1
> 5000 | > 5000 | > 5000 | – | FC(F)(F)c1cccc(Nc2nc(Nc3ccc(-c4ccsc4)cc3)ncc2Cl)c1
133 | 357 | 285 | – | NC(=O)c1ccc(-c2cnc(Nc3ccc(-c4ccsc4)cn3)nc2Nc2cccc(C(F)(F)F)c2)cc1
76.4 | 63.9 | 99.9 | – | CC(=O)Nc1ccc(Nc2nc(Nc3ccc(-c4ccsc4)cn3)ncc2Cl)cc1
128 | 105 | 134 | – | Fc1ccc(Nc2nc(Nc3ccc(-c4ccsc4)cn3)ncc2Cl)cc1
61.8 | 102 | 86.5 | – | CC(=O)Nc1ccc(-c2cnc(Nc3ccc(-c4ccsc4)cn3)nc2Nc2cccc(C(F)(F)F)c2)cc1
216 | 288 | 356 | – | FC(F)(F)c1cccc(Nc2nc(Nc3ccc(-c4ccsc4)cn3)ncc2-c2ccc(Cl)cc2)c1
> 5000 | > 5000 | > 5000 | – | Nc1ccc(-c2cnc(Nc3ccc(-c4ccsc4)cn3)nc2Nc2cccc(C(F)(F)F)c2)cc1
> 5000 | > 5000 | > 5000 | – | FC(F)(F)c1cccc(Nc2nc(Nc3cnc(-c4ccsc4)cn3)ncc2Cl)c1
57 | 111 | 89.5 | > 5000 | Nc1ccc(Nc2nc(Nc3ccc(-c4ccsc4)cn3)ncc2Cl)cc1
102 | 141 | 155 | – | Clc1cnc(Nc2ccc(-c3ccsc3)cn2)nc1Nc1ccccn1
